Results on two molecules are retold here after publication PMC10997566, “Kinetic profiling of novel spirobenzo-oxazinepiperidinone derivatives as equilibrative nucleoside transporter 1 inhibitors” (Purinergic Signalling, 2023).

The target in the assay is T1, hENT1 (Homo sapiens, UniProt Q99808).
T1 sequence (Q99808 1-456): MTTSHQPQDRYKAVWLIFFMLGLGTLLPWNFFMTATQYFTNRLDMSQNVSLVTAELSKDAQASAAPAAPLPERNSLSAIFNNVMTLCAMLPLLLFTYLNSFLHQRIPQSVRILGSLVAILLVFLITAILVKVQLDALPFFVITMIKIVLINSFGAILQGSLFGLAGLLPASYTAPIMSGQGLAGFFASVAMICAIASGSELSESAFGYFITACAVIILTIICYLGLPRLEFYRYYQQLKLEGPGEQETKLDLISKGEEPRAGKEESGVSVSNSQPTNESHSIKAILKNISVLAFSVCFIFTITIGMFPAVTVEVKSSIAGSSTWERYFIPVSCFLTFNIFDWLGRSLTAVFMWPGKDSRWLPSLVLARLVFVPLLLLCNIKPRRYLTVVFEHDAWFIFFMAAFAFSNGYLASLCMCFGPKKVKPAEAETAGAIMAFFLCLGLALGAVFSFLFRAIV
Briefly: biochemical.

As to `Nc1cc2c(cc1Cl)C(=O)NC1(CCN(CCNC(=O)c3c(Cl)cccc3Cl)CC1)O2` [Compound 1], the Ki is 145 nM. In other words, the sub-micromolar range.

In turn, `O=C1NC2(CCN(CCNC(=O)c3c(Cl)cccc3Cl)CC2)Oc2cc(O)c(Cl)cc21` [Compound 20] showed a Ki of 1040 nM.
